Patent US3968214A, “5-Methylthio-pyrimidine vasodilators” (Produits Chimiques Ugine Kuhlmann, priority 1973, dated 1976)
Where two headings read alike, the source gives them in different places.

Key:
[1] = Acute toxicity in mice, intravenous and oral (LD50); type: in vivo; conditions: mouse, in vivo
Source text: The acute toxicities of the compounds according to the invention have been determined CD 1 mice (Charles RIVER) by intravenous and oral methods. The LD50 calculated by the quantal cumulative method of J. J. Reed and H. Muench (Amer. J. Hyg. 1938, 27, 493) are collected in the following Table: […]

[2] = test system: isolated duodenum of rabbit, contractions caused by acetylcholine; test: Spasmolytic activity, neurotrope versus acetylcholine, isolated duodenum (Magnus)
Source text: (§1) The spasmolytic activities are known by means of the technique of R. Magnus (Arch. Ges. Physiol., 1904, 102, 123) on the isolated duodenum of rabbits. The spasmolytic neurotropes inhibit the contractions of the organ caused by acetylcholine, while the musculotropes prevent the spasms induced by barium chloride. The EC 50 expressed in mg/litre are collected in the following Table where EC denotes "Effective concentration".

[3] = test system: isolated duodenum of rabbit, spasms induced by barium chloride; test: Spasmolytic activity, musculotrope versus BaCl2, isolated duodenum (Magnus)
Source text: as §1

isolated rabbit heart = test: Coronaro-dilatatory activity, isolated heart (Langendorff modified by Anderson); conditions: for coronaro-dilatatory activity (in words): isolated rabbit heart
Source text: The technique of Langendorff, modified by F. E. Anderson, (J. Pharmacol. exp. Therap., 1948, 91, 135) using isolated rabbit heart permits the coronaro-dilatatory activity of the products to be studied. In this text, the cardiac perfusion liquid contains 0.5 UI/1 of posthypophysis. The results are expressed in the percentage variation of the coronary flow after affusion of the product to be tested, compared with the initial flow.

[4] = oral, read-out: Acute toxicity to mice LD 50, orally
[5] = intravenous, read-out: Acute toxicity to mice LD 50, intravenous

CSc1c(Cl)nc(N(C)c2ccc(Cl)cc2)nc1NCCN1CC(C)OC(C)C1 (centres unmarked) [Example 22, 2-N-methyl-N-(4-chloro-phenyl)amino-4-(2'-2,6-dimethyl-morpholino)-ethylamino-5-methylthio-6-chloro-pyrimidine]
LD50 [1, 4]: > 900 mg/kg

CCCCOc1nc(N(C)c2ccccc2)nc(NCCN(C(C)C)C(C)C)c1SC [Example 32, 2-N-methyl-N-phenylamino-4-(2'-diiso-propyl-amino)-ethylamino-5-methyl-thio-6-butoxy-pyrimidine]
LD50 [1, 4]: ~525 mg/kg

CCN(CC)CCNc1nc(N(C)Cc2ccccc2)nc(Cl)c1SC [Example 4, 2-N-methyl-N-benzylamino-4-(2'-diethylamino)-ethylamino-5-methylthio-6-chloro-pyrimidine]
LD50 [1, 5]: 45 mg/kg | LD50 [1, 4]: 525 mg/kg | Spasmolytic activity EC 50, neurotrope versus acetylcholine [2]: 0.30 µg/mL | neurotropic spasmolytic activity (in words) [2]: necessary to call attention | Spasmolytic activity EC 50, musculotrope versus BaCl2 [3]: 0.06 µg/mL | musculotropic EC 50 [3]: less than 0.1 mg/liter | musculotropic spasmolytic activity (in words) [3]: quite remarkable activities | Increase of the coronary flow (isolated rabbit heart; dose 0.003 mg): 8% | Increase of the coronary flow (isolated rabbit heart; dose 0.01 mg): 28% | Increase of the coronary flow (isolated rabbit heart; dose 0.03 mg): 41% | Increase of the coronary flow (isolated rabbit heart; dose 0.10 mg): 135% | coronaro-dilatatory activity (in words) (isolated rabbit heart): interesting coronaro-dilatatory activities

COc1nc(N2CCCCC2)nc(NCCN(C(C)C)C(C)C)c1SC [Example 29, 2-piperidino-4-(2'-diisopropyl-amino)-ethylamino-5-methylthio-6-methoxy-pyrimidine]
LD50 [1, 4]: ~200 mg/kg

CCCCOc1nc(N(C)Cc2ccccc2)nc(NCCN(C(C)C)C(C)C)c1SC [Example 31, 2-N-methyl-2-N-benzylamino-4-(2'-di-isopropyl-amino)-ethylamino-5-methylthio-6-butoxy-pyrimidine]
LD50 [1, 4]: ~675 mg/kg

CCOC(=O)CN(C)c1nc(Cl)c(SC)c(NCCN(C)C)n1 [Example 10, 2-N-methyl-N-(ethoxycarbonylmethyl)-amino-4-(2'-dimethylamino)-ethylamino-5-methylthio-6-chloro-pyrimidine]
LD50 [1, 5]: 79 mg/kg | LD50 [1, 4]: 900 mg/kg | Spasmolytic activity EC 50, neurotrope versus acetylcholine [2]: 0.50 µg/mL | neurotropic spasmolytic activity (in words) [2]: necessary to call attention | Spasmolytic activity EC 50, musculotrope versus BaCl2 [3]: 0.50 µg/mL

CSc1c(NCCN(C)C)nc(N(C)C)nc1OCc1cccnc1 [Example 23, 2-N-dimethyl-amino-4-(2'-dimethylamino)-ethylamino-5-methyl-thio-6-(3-pyridyl)-methoxy-pyrimidine]
LD50 [1, 5]: 22 mg/kg | LD50 [1, 4]: 175 mg/kg | Spasmolytic activity EC 50, neurotrope versus acetylcholine [2]: 8.60 µg/mL | Spasmolytic activity EC 50, musculotrope versus BaCl2 [3]: 1.00 µg/mL

COc1ccc(N(C)c2nc(NCCN(C(C)C)C(C)C)c(SC)c(OC)n2)cc1OC [Example 28, 2-N-methyl-N-(3,4-dimethoxy-phenyl)-amino-4-(2'-diisopropyl-amino)-ethyl-amino-5-methylthio-6-methoxy-pyrimidine]
LD50 [1, 4]: ~200 mg/kg

CCN(CC)CCNc1nc(N(C)c2ccc(OC)c(OC)c2)nc(Cl)c1SC [Example 20, 2-N-methyl-N(3,4-dimethoxy-phenyl)amino-4-(2'-diethylamino)-ethylamino-5-methylthio-6-chloro-pyrimidine]
LD50 [1, 4]: 400 mg/kg

CCN(CC)CCNc1nc(N(C)C)nc(Cl)c1SC [Example 1, 2-dimethylamino-4-(2'-diethylamine)ethylamino-5-methylthio-6-chloropyrimidine]
LD50 [1, 5]: 53 mg/kg | LD50 [1, 4]: 200 mg/kg | Spasmolytic activity EC 50, neurotrope versus acetylcholine [2]: 5.50 µg/mL | Spasmolytic activity EC 50, musculotrope versus BaCl2 [3]: 1.40 µg/mL

CCOC(=O)CN(C)c1nc(Cl)c(SC)c(NCCN(C(C)C)C(C)C)n1 [Example 15, 2-N-methyl-N-(ethoxycarbonylmethyl)-amino-4-(2'-diisopropylamino)-ethylamino-5-methyl-thio-6-chloro-pyrimidine]
LD50 [1, 5]: 63 mg/kg | LD50 [1, 4]: > 900 mg/kg | Spasmolytic activity EC 50, musculotrope versus BaCl2 [3]: 0.05 µg/mL | musculotropic EC 50 [3]: less than 0.1 mg/liter | musculotropic spasmolytic activity (in words) [3]: quite remarkable activities | Increase of the coronary flow (isolated rabbit heart; dose 0.003 mg): 16% | Increase of the coronary flow (isolated rabbit heart; dose 0.01 mg): 24% | Increase of the coronary flow (isolated rabbit heart; dose 0.03 mg): 44% | Increase of the coronary flow (isolated rabbit heart; dose 0.10 mg): 28% | coronaro-dilatatory activity (in words) (isolated rabbit heart): interesting coronaro-dilatatory activities

CCN(CC)CCNc1nc(N(C)c2ccc(Cl)cc2)nc(OC)c1SC [Example 25, 2-N-methyl-N(4-chloro-phenyl)amino-4-(2'-diethylamino)-ethylamino-5-methylthio-6-methoxy-pyrimidine]
LD50 [1, 4]: ~600 mg/kg

CSc1c(Cl)nc(N(C)c2ccc(C)cc2)nc1NCCN(C(C)C)C(C)C [Example 14, 2-N-methyl-N(4-methyl-phenyl)amino-4-(2'-diisopropylamino)-ethylamino-5-methylthio-6-chloro-pyrimidine]
LD50 [1, 5]: 92 mg/kg | LD50 [1, 4]: 900 mg/kg | Spasmolytic activity EC 50, neurotrope versus acetylcholine [2]: 0.08 µg/mL | neurotropic spasmolytic activity (in words) [2]: necessary to call attention | Spasmolytic activity EC 50, musculotrope versus BaCl2 [3]: 0.04 µg/mL | musculotropic EC 50 [3]: less than 0.1 mg/liter | musculotropic spasmolytic activity (in words) [3]: quite remarkable activities | Increase of the coronary flow (isolated rabbit heart; dose 0.003 mg): 104% | Increase of the coronary flow (isolated rabbit heart; dose 0.01 mg): 140% | Increase of the coronary flow (isolated rabbit heart; dose 0.03 mg): 168% | coronaro-dilatatory activity (in words) (isolated rabbit heart): interesting coronaro-dilatatory activities

CCN(CC)CCNc1nc(N(C)c2ccc(C)cc2)nc(Cl)c1SC [Example 19, 2-N-methyl-N(4-methyl-phenyl)amino-4-(2'-diethylamino)-ethylamino-5-methyl-thio-6-chloro-pyrimidine]
LD50 [1, 4]: ~675 mg/kg

CSc1c(Cl)nc(N(C)Cc2ccccc2)nc1NCCN(C(C)C)C(C)C [Example 11, 2-N-methyl-N-benzylamino-4-(2'-di-isopropyl-amino)-ethylamino-5-methylthio-6-chloro-pyrimidine]
LD50 [1, 5]: 60 mg/kg | LD50 [1, 4]: 675 mg/kg | Spasmolytic activity EC 50, neurotrope versus acetylcholine [2]: 3.50 µg/mL | Spasmolytic activity EC 50, musculotrope versus BaCl2 [3]: 0.02 µg/mL | musculotropic EC 50 [3]: less than 0.1 mg/liter | musculotropic spasmolytic activity (in words) [3]: quite remarkable activities | Increase of the coronary flow (isolated rabbit heart; dose 0.001 mg): 168% | Increase of the coronary flow (isolated rabbit heart; dose 0.003 mg): 172% | coronaro-dilatatory activity (in words) (isolated rabbit heart): interesting coronaro-dilatatory activities

CSc1c(Cl)nc(N2CCOCC2)nc1NCCN(C)C [Example 9, 2-morpholino-4-(2'-dimethylamino)-ethyl-amino-5-methylthio-6-chloro-pyrimidine]
LD50 [1, 4]: 400 mg/kg | Spasmolytic activity EC 50, neurotrope versus acetylcholine [2]: 3.00 µg/mL | Spasmolytic activity EC 50, musculotrope versus BaCl2 [3]: 1.90 µg/mL

CSc1c(Cl)nc(N(C)C)nc1NCCN(C)C [Example 8, 2-dimethylamino-4-(2'-dimethylamino)-ethylamino-5-methylthio-6-chloro-pyrimidine]
LD50 [1, 5]: 57 mg/kg | LD50 [1, 4]: 525 mg/kg | Spasmolytic activity EC 50, neurotrope versus acetylcholine [2]: 4.90 µg/mL | Spasmolytic activity EC 50, musculotrope versus BaCl2 [3]: 2.80 µg/mL

COc1ccc(N(C)c2nc(Cl)c(SC)c(NCCN(C(C)C)C(C)C)n2)cc1OC [Example 21, 2-N-methyl-N(3,4-dimethoxy-phenyl)amino-4-(2'-diisopropylamino)-ethylamino-5-methylthio-6-chloro-pyrimidine]
LD50 [1, 4]: ~600 mg/kg
